Data taken from PubChem BioAssay AID2305 (GlaxoSmithKline (GSK), 2010).

Tested on: P. falciparum 3D7 growth, pLDH absorbance
Experiment: blood-stage malaria parasite growth potency – strain 3D7, dose response (AID 2305)

With Cc1cc(Nc2ccncc2)n2nc(C)c(-c3ccc(Cl)cc3)c2n1 as the compound, how does the IC50 read?
Its IC50 is 160 nM.

COc1ccc(-c2cccc(NC(=O)c3cccc(F)c3)c2)cc1CN1CCCN(C)CC1 was tested. Which IC50 did it give?
The IC50 was 600 nM.

With CC(C)Nc1ccc(Nc2ccnc3cc4ccccc4cc23)cc1 as the compound, how does the IC50 read?
The IC50 was 140 nM.

How did the IC50 turn out when O=C(NCC1CCC(CNCCCc2ccccc2)CC1)Nc1ccc(Cl)c(Cl)c1 (centres undefined) was run?
The IC50 was 770 nM.

CC(C)C[C@H](NC(=O)c1ccc(OCCN2CCOCC2)cc1)C(=O)N[C@H](/C=N/NC(=O)OC(C)(C)C)CCc1ccccc1 was tested. Which IC50 did it give?
Its IC50 is 160 nM.

Which IC50 does the source give for CC(C)COc1ccc(Cl)cc1Cc1nc(-c2nc3ccc(CN4CCCCC4)cc3[nH]2)co1 here?
Its IC50 is 740 nM.

Cc1ccc2c(Cl)c(C(=O)N3CCCc4ccccc43)sc2c1 was tested. Which IC50 did it give?
The IC50 was 1510 nM.

With COc1ccc(NC(=O)c2c(NC(=O)c3cccs3)sc3c2CCCC3)cc1 as the compound, how does the IC50 read?
Its IC50 is 450 nM.

O=C(/C=C/c1ccc(Cl)c(Cl)c1)NCCCCCN1CCCC(CCCNC(=O)Nc2ccc(C(F)(F)F)cc2)C1 (centres undefined) was tested. Which IC50 did it give?
Its IC50 is 530 nM.

How did the IC50 turn out when COc1cc(CNCCCNc2nc3ccsc3c(=O)[nH]2)c2[nH]cc(Cl)c2c1 was run?
Its IC50 is 890 nM.

Which IC50 does the source give for CN(CCN1CCC(c2c[nH]c3ccccc23)CC1)c1ccc(-c2nc3cc(Cl)c(Cl)cc3[nH]2)cc1 here?
The IC50 was 120 nM.

Which IC50 does the source give for O=C(Nc1ccc(Br)cc1)N(CCN1CCOCC1)CC(O)COCc1ccc(F)cc1 (centres undefined) here?
Its IC50 is 1040 nM.

CN(C)CCCn1cncc1-c1ccc2ncnc(Nc3ccc(OCc4ccccc4)cc3)c2c1 was tested. Which IC50 did it give?
The IC50 was 520 nM.

For Cc1ccc(NC(=O)NC2CCN(c3ccnc4cc(Cl)ccc34)CC2)cc1, which IC50 is on record?
Its IC50 is 320 nM.

For COc1cccc(CN2CCCC(OC(c3ccccc3)c3ccccc3)C2)c1O (centres undefined), which IC50 is on record?
Its IC50 is 930 nM.

Which IC50 does the source give for Nc1c2c(nc3ccc(NC(=O)c4ccccc4)cc13)CCCC2 here?
Its IC50 is 610 nM.

Cn1ccnc1S(=O)(=O)CCNCc1ccc(-c2ccc3ncnc(Nc4ccc(OCc5cccc(F)c5)c(Cl)c4)c3c2)o1 was tested. Which IC50 did it give?
Its IC50 is 700 nM.

How did the IC50 turn out when CCOc1cc2ncnc(Nc3ccc(OCc4c(Cl)cccc4Cl)c(OC)c3)c2cc1OCC was run?
The IC50 was 1050 nM.

How did the IC50 turn out when CCCCCN1CCCN(Cc2cccc(NC(=O)c3ccc4ccccc4c3)c2)CC1 was run?
The IC50 was 1220 nM.

Which IC50 does the source give for COc1ccc2nccc(N3CCCN(CCNS(=O)(=O)c4ccc5c(c4)NC(=O)CS5)CC3)c2n1 here?
Its IC50 is 820 nM.

How did the IC50 turn out when Oc1ccc2nc(NCCCc3ccccc3)nc(NCCc3ccccc3)c2c1 was run?
Its IC50 is 290 nM.

COc1ccc(CCN(C)CCCCNC(=O)c2ccc(NC(=O)c3ccc(Cl)cc3)cc2)c(OC)c1 was tested. Which IC50 did it give?
The IC50 was 920 nM.

How did the IC50 turn out when COc1cccc(CN2Cc3ccccc3OC3(CCN(Cc4c[nH]c5cnccc45)CC3)C2)c1 was run?
The IC50 was 1300 nM.

Which IC50 does the source give for Cc1nc2nc(N)nc(N)c2c(C)c1Cc1ccc(C#N)cc1 here?
The IC50 was 540 nM.

Which IC50 does the source give for C=CCc1cc(Cc2cnc(N)nc2N)cc(CCC)c1OC here?
Its IC50 is 1360 nM.

CC(C)C[C@@H](NC(=O)OC(C)(C)C)C(=O)Nc1ccc(Cc2ccc(NC(=O)[C@@H](CC(C)C)NC(=O)OC(C)(C)C)cc2)cc1 was tested. Which IC50 did it give?
The IC50 was 210 nM.

How did the IC50 turn out when Cc1ccc(NC(=O)NC2CCN(c3ccnc4ccccc34)CC2)cc1 was run?
The IC50 was 790 nM.

For COc1ccc(S(=O)(=O)N2CCOCC2)cc1NC(=O)c1cc2ccccc2o1, which IC50 is on record?
Its IC50 is 790 nM.

With CCC1CN2CCc3c([nH]c4ccccc34)C2CC1CC1=NCCc2c1[nH]c1ccccc21 (centres undefined) as the compound, how does the IC50 read?
Its IC50 is 740 nM.

With CCc1nc(N)nc(N)c1-c1ccccc1 as the compound, how does the IC50 read?
The IC50 was 1180 nM.

With CCOC(=O)c1ccc(NC(=O)N(Cc2ccc(-c3cccc(CN4CCNCC4)c3)cc2)C2CCN(Cc3ccccc3)CC2)cc1 as the compound, how does the IC50 read?
Its IC50 is 750 nM.

Which IC50 does the source give for CCS(=O)(=O)Nc1ccc2[nH]cc(C3CCN(CCC4CCN(C(=O)/C=C/c5ccc(Cl)c(Cl)c5)CC4)CC3)c2c1 here?
The IC50 was 530 nM.

With Cc1c(CCNC(=O)CCCN2CC(C)CC(C)C2)c2ccccc2n1C (centres undefined) as the compound, how does the IC50 read?
Its IC50 is 1270 nM.

Which IC50 does the source give for Cc1noc(C)c1-c1cccc(CNCc2ccc(-c3ccc(-c4nc5ccccc5[nH]4)s3)cc2)c1 here?
Its IC50 is 560 nM.

Which IC50 does the source give for O=C(CCc1ccccc1)N[C@H](Cc1c[nH]c2ccccc12)C(=O)N1CCC(NCc2ccc3c(c2)Cc2ccccc2-3)CC1 here?
Its IC50 is 910 nM.

With CCCNCc1ccc(-c2ccc(CN(CCOC)C(=O)c3ccccc3)cc2)nc1 as the compound, how does the IC50 read?
The IC50 was 880 nM.

Which IC50 does the source give for CCN(CCO)Cc1ccc(-c2ccc(NS(=O)(=O)c3cccc4cccnc34)cc2)cc1 here?
Its IC50 is 990 nM.

O=[N+]([O-])c1ccc(CNCCCCCCNCc2ccc([N+](=O)[O-])c3ccccc23)c2ccccc12 was tested. Which IC50 did it give?
Its IC50 is 790 nM.

How did the IC50 turn out when Cn1cncc1-c1ccc2c(-c3ccsc3)cnc(N)c2c1 was run?
Its IC50 is 850 nM.

With O=C(Nc1ccc2c(c1)CCC2)c1cnc(N2CCN(c3ccncc3)CC2)c(Cl)c1 as the compound, how does the IC50 read?
Its IC50 is 1110 nM.

How did the IC50 turn out when COc1ccc(CCNC(=O)c2cc(C)ccc2O)cc1-c1ccc(C(C)(C)C)cc1 was run?
The IC50 was 480 nM.

Which IC50 does the source give for COc1ccc2sc(CNCCCNc3cc(=O)c4ccccc4[nH]3)c(Cl)c2c1 here?
The IC50 was 1070 nM.

With CCCCC([C@@H](Cc1ccc2ccccc2c1)C(=O)N[C@H](C(=O)NC)C(C)(C)C)N(O)C=O (some centres undefined) as the compound, how does the IC50 read?
The IC50 was 140 nM.

COc1cccc(Nc2nc(C)cc(NCc3ccc(-n4ccnc4)cc3)n2)c1 was tested. Which IC50 did it give?
Its IC50 is 960 nM.

Which IC50 does the source give for O=S(=O)(Nc1ccc(CCN2CCC(N3CCCCC3)CC2)cc1)c1cccc2cccnc12 here?
The IC50 was 1060 nM.

How did the IC50 turn out when Cc1ccccc1C1CCN(C2CCC(NC(=O)/C=C/c3ccccc3C(F)(F)F)CC2)CC1 (centres undefined) was run?
The IC50 was 1410 nM.

How did the IC50 turn out when CC(C)c1ncc(-c2ccncc2)c(C2CCC(CNC(=O)c3cccnc3)CC2)n1 (centres undefined) was run?
Its IC50 is 780 nM.

Which IC50 does the source give for Cc1cccc2[nH]c(-c3ccc(-c4cccc(NC(=O)Nc5ccc(Cl)cc5)c4)s3)nc12 here?
The IC50 was 520 nM.

How did the IC50 turn out when Cc1cccc(/C=C/C(=O)NC2CCC(N3CCC(c4ccccc4C)CC3)CC2)c1 (centres undefined) was run?
The IC50 was 1110 nM.
